The values that follow are results of earlier work, collected in US11618772B2 (Kineta Chronic Pain, LLC, priority 2014, dated 2023).

This series deals with T1, α9α10 nAChR (Rattus norvegicus, UniProt P43144+Q9JLB5).
T1 construct: host or cells: oocytes
To be noted: cited from earlier work.

T1 sequence (P43144 26-479 limits assumed): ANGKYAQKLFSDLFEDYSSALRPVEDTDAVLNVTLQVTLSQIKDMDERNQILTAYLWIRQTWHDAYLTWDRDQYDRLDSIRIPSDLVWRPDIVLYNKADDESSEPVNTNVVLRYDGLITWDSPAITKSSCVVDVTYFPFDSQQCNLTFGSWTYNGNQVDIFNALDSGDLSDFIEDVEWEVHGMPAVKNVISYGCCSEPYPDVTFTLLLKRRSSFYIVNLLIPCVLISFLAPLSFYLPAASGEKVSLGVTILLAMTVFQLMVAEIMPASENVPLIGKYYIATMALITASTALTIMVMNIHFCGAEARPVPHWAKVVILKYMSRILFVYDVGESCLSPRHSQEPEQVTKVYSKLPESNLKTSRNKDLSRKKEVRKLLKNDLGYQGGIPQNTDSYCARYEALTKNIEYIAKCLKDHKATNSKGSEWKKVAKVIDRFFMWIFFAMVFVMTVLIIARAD
T1 sequence (Q9JLB5 25-447 limits assumed): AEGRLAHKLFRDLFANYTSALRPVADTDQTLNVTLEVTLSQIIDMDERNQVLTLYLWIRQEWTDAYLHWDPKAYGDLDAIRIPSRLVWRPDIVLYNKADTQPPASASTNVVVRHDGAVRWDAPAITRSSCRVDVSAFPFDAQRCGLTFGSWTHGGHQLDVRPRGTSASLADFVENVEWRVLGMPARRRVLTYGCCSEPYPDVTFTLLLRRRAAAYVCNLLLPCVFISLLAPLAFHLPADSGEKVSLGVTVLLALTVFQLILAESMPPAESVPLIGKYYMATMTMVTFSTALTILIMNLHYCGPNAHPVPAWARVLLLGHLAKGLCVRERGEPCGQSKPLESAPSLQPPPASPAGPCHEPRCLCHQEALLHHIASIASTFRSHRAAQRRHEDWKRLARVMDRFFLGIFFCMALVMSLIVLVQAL

For the sequence GCCSDPRCRYRCR [RgIA], the “block of α9α10 nAChR” value is on record as “block α9α10 nAChR”.
